Melting point data for five molecules are collected here from patent US20030162765A1, “2-amino-6-(2-substituted-4-phenoxy)-substituted-pyridines” (Pfizer Inc., priority 1997, published 2003).

Structures can show the parent of a compound that is named as a salt.

Broadly, the melting point is the temperature of the solid-liquid transition.

Take `CCOc1cc(-c2cccc(N)n2)ccc1OCCN(C)C` (as salt: hydrochloride) [Example 12, 6-[4-(2-Dimethylamino-ethoxy)-3-ethoxy-phenyl]-pyridin-2-ylamine]: the melting point lay in the range of 210 to 216 °C.
Molecule `COc1cc(-c2cccc(N)n2)ccc1OCCN(C)C` (as salt: hydrochloride) [Example 6, 6-[4-(2-Dimethylamino-ethoxy)-3-methoxy-phenyl]-pyridin-2-ylamine] came in with a melting point of 225 to 228 °C.
With `Cc1cc(-c2cccc(N)n2)c(C)cc1OCCN1CCN(CCc2ccccc2)CC1` (as salt: hydrochloride) [Example 111, 6-[4-(2-(4-Phenethylpiperazin-1-yl)-ethoxy)-2,5-dimethyl-phenyl]-pyridin-2-ylamine], the melting point is more than 220 °C.
For `COc1cc(-c2cccc(N)n2)ccc1OCCN1CCN(CCc2ccccc2)CC1` (as salt: hydrochloride) [Example 9, 6-{3-methoxy-4-[2-(4-phenethyl-piperazin-1-yl)-ethoxy]-phenyl}-pyridin-2-ylamine], the melting point was in the range of 167 to 182 °C.
As for `Cc1cc(-c2cccc(N)n2)c(C)cc1OCCN(C)C` (as salt: hydrochloride) [Example 110, 6-[4-(2-dimethylamino-ethoxy)-2,5-dimethyl-phenyl]-pyridin-2-ylamine], the melting point was in the range of 205 to 209 °C.
